Laboratory results published in ChEMBL document CHEMBL2311471, “Synthesis of (E)-8-(3-chlorostyryl)caffeine analogues leading to 9-deazaxanthine derivatives as dual A(2A) antagonists/MAO-B inhibitors” (J Med Chem, 2013).
pIC50, pKi: −log10 of the molar value.

Tests used:
Adenosine receptor A2a = Adenosine receptor A2a (Homo sapiens, UniProt P29274); experiment: Displacement of [3H]ZM241385 from human adenosine A2A receptor expressed in HEK293 cells after 1 hr by microbeta scintillation counting analysis; assay type: cell-based
[1] = target: T1, Amine oxidase [flavin-containing] B (Homo sapiens, UniProt P27338); experiment: Inhibition of human MAOB after 1 hr by luminescence assay
T1 sequence (P27338 whole entry): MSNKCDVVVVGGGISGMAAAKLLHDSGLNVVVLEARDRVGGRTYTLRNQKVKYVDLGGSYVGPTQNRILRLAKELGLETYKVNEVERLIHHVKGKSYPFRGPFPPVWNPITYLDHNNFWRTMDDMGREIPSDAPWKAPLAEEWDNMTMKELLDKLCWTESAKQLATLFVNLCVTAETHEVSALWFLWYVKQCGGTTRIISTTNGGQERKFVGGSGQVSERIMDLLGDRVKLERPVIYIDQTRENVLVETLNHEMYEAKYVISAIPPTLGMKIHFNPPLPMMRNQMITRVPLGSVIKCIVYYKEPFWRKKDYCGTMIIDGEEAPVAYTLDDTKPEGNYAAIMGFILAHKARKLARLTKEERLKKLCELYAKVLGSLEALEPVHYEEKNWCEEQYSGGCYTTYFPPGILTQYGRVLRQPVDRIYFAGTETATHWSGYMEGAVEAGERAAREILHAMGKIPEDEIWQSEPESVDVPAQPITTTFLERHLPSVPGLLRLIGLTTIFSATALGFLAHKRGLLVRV

[2] = target: T2, Amine oxidase [flavin-containing] A (Homo sapiens, UniProt P21397); experiment: Inhibition of human MAOA after 1 hr by luminescence assay
T2 sequence (P21397 whole entry): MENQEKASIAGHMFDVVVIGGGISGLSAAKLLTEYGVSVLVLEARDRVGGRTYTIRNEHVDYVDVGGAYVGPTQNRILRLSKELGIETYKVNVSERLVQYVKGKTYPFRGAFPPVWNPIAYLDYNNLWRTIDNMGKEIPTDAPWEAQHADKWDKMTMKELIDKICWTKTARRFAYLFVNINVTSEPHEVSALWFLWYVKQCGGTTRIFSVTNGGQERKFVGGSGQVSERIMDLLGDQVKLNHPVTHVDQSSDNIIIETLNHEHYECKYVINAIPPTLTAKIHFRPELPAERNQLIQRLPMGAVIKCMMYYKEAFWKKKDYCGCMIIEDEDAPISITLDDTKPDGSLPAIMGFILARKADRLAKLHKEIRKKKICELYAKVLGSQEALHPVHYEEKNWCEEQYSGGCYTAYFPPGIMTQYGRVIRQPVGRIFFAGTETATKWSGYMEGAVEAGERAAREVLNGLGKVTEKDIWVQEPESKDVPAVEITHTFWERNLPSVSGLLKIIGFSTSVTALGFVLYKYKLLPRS

Chain of Adenosine receptor A2a (P29274 whole entry): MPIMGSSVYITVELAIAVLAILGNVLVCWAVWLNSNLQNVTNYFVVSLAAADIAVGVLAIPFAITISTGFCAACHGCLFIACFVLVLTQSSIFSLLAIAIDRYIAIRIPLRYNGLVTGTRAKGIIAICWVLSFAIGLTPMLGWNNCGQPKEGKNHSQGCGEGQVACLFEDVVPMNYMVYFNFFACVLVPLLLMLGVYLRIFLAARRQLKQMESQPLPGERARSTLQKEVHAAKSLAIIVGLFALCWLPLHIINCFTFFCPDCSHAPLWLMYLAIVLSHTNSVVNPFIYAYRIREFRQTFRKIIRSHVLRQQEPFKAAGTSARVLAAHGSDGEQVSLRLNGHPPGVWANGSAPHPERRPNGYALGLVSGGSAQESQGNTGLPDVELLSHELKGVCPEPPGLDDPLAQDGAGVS

SMILES | pKi (Adenosine receptor A2a) | pIC50 [1] | pIC50 [2]
Cn1c(=O)c2c(cc(C#CCc3ccccc3)n2C)n(C)c1=O | < 5.00 | < 6.00 | 
Cn1c(=O)c2c(cc(OCc3ccc(Cl)cc3)n2C)n(C)c1=O | < 5.00 | 7.32 | 5.54
Cn1c(=O)c2c(cc(/C=C/c3cccc(O)c3)n2C)n(C)c1=O | < 6.00 | < 6.00 | 
Cn1c(=O)c2c(cc(C#Cc3ccc(Cl)cc3)n2C)n(C)c1=O | < 5.00 | 7.17 | 5.69
Cn1c(=O)c2c(cc(/C=C/c3ccncc3)n2C)n(C)c1=O | < 5.00 | < 5.00 | 
CC(=O)c1cccc(/C=C/c2cc3c(c(=O)n(C)c(=O)n3C)n2C)c1 | < 5.00 | < 5.00 | 
CN(C(=O)/C=C/c1ccccc1)c1cn(C)c(=O)n(C)c1=O | < 6.00 | < 5.00 | 
Cn1c(=O)c2c(cc(/C=C/c3cccc(C#N)c3)n2C)n(C)c1=O | < 5.00 | < 5.00 | 
Cn1c(=O)c2c(cc(/C=C/c3ccc(O)cc3)n2C)n(C)c1=O | < 5.00 | < 5.00 | 
Cn1c(=O)c2c(cc(/C=C/c3ccc(F)cc3)n2C)n(C)c1=O | 6.37 | 6.76 | 6.09
Cn1c(=O)c2c(cc(/C=C/c3ccc(Cl)c(Cl)c3)n2C)n(C)c1=O | < 5.00 | 6.88 | 
Cn1c(=O)c2c(cc(/C=C/c3ccc4c(c3)OCO4)n2C)n(C)c1=O | 6.33 | < 6.00 | 
CCn1c(/C=C/c2ccc(Cl)cc2)cc2c1c(=O)n(C)c(=O)n2C | < 5.00 | < 6.00 | 
Cn1c(/C=C/c2ccccc2)nc2c1ccc(=O)n2C | < 5.00 | < 5.00 | 
Cn1c(=O)c2c(cc(/C=C/c3ccccc3O)n2C)n(C)c1=O | 5.94 | < 6.00 | 
Cn1c(=O)c2c(c3ccc(-c4ccccc4)cc3n2C)n(C)c1=O | < 5.00 | 5.12 | 
Cn1c(=O)c2c(cc(/C=C/c3ccccc3)n2C)n(C)c1=O | 6.77 | 5.80 | 
CCn1c(=O)c2c(cc(OCc3ccc(Cl)cc3)n2C)n(CC)c1=O | < 5.00 | < 6.00 | 
Cn1c(=O)c2c(cc(/C=C/c3cccc(C(F)(F)F)c3)n2C)n(C)c1=O | < 5.00 | 6.32 | 5.24
Cn1ccc2nc(/C=C/c3ccccc3)n(C)c2c1=O | < 5.00 | < 5.00 | 
COc1cccc(/C=C/c2cc3c(c(=O)n(C)c(=O)n3C)n2C)c1 | 6.41 | 6.43 | 5.91
CCn1c(=O)c2c(cc(/C=C/c3ccc(Cl)cc3)n2C)n(CC)c1=O | < 5.00 | < 6.00 | 

SMILES | pKi (Adenosine receptor A2a) | pIC50 [1] | pIC50 [2]
Cn1c(=O)c2c(cc(C#Cc3cccc(Cl)c3)n2C)n(C)c1=O | < 5.00 | 6.76 | < 5.00
Cn1c(=O)c2c(cc(/C=C/c3cccc(Cl)c3)n2C)n(C)c1=O | 6.37 | 5.83 | 
Cn1c(=O)c2c(cc(OCc3ccc(Cl)c(C(F)(F)F)c3)n2C)n(C)c1=O | < 5.00 | 6.23 | < 5.00
Cn1c(=O)c2c(c3ccc(-c4cccc(Cl)c4)cc3n2C)n(C)c1=O | < 6.00 | 5.86 | 5.51
Cn1c(=O)c2c(cc(/C=C/c3ccc(C(F)(F)F)cc3)n2C)n(C)c1=O | 6.28 | 6.37 | < 5.00
COc1ccc(/C=C/c2cc3c(c(=O)n(C)c(=O)n3C)n2C)cc1 | 6.61 | 6.12 | < 6.00
Cn1c(=O)c2c(cc(OCc3ccc4ccccc4c3)n2C)n(C)c1=O | < 5.00 | < 6.00 | < 5.00
CC(=O)c1ccc(/C=C/c2cc3c(c(=O)n(C)c(=O)n3C)n2C)cc1 | 7.03 | 6.23 | < 5.00
Cn1c(=O)c2c(cc(Oc3cccc(-c4ccccc4)c3)n2C)n(C)c1=O | < 5.00 | < 5.00 | 
Cn1c(=O)c2c(c3cc(OCc4ccccc4)ccc3n2C)n(C)c1=O | < 6.00 | 5.28 | < 5.00
Cn1c(=O)c2c(cc(/C=C/c3ccc(C#N)cc3)n2C)n(C)c1=O | < 6.00 | 6.26 | < 5.00
Cn1c(=O)c2c(cc(-n3cc(-c4ccc(Cl)cc4)nn3)n2C)n(C)c1=O | < 5.00 | 6.74 | 6.14
Cn1c(=O)c2c(cc(/C=C/c3cccc(N)n3)n2C)n(C)c1=O | 6.05 | < 5.00 | 
Cn1c(=O)c2c(nc(/C=C/c3ccc(Cl)cc3)n2C)n(C)c1=O | 6.85 | 6.37 | < 5.00
Cn1c(=O)c2c(cc(-c3nc4ccc(Cl)cc4o3)n2C)n(C)c1=O | < 6.00 | < 6.00 | 
Cn1c(=O)c2c(cc(Oc3cccc(Cl)c3)n2C)n(C)c1=O | < 5.00 | < 5.00 | 
CCn1c(=O)c2c(nc(/C=C/c3ccc(OC)c(OC)c3)n2C)n(CC)c1=O [ISTRADEFYLLINE] |  | < 5.00 | 
Cn1c(=O)c2c(cc(/C=C/c3ccc(S(C)(=O)=O)cc3)n2C)n(C)c1=O | < 6.00 | < 6.00 | 
CCCOc1ccc(/C=C/c2cc3c(c(=O)n(C)c(=O)n3C)n2C)cc1 | 6.51 | 5.86 | 5.89
CCn1c(=O)c2c(cc(C#Cc3ccc(Cl)cc3)n2C)n(CC)c1=O | < 5.00 | < 6.00 | 
Cn1c(=O)c2c(cc(/C=C/c3ccc(Br)cc3)n2C)n(C)c1=O | < 5.00 | 6.57 | 5.79
Cn1c(=O)c2c(cc(NC(=O)c3ccc(Cl)cc3)n2C)n(C)c1=O | < 5.00 | < 5.00 | 
